Where two headings read alike, the source gives them in different places.
Columns and labels:
Type in all cases: cell-based, Acinetobacter baumannii
[1] = tested on: A. baumannii isolates (23 strains); experiment: Clarithromycin potentiation against AB isolates; settings: adjuvant at 10 μM
Procedure: Broth microdilution method for antibiotic potentiation. Day cultures (6 h) of bacteria in CAMHB were subcultured to 5×10^5 CFU/mL in CAMHB. Aliquots (4 mL) were placed in culture tubes and dosed with compound from 10 mM stock samples to give the desired concentration of the compound to be tested against the particular bacterial strain; this insured non-toxic DMSO concentrations ≤0.3% in each well. 1 mL of the resulting solution was placed in a separate culture and dosed with antibiotic at the highest concentration to be tested. Bacteria treated with antibiotic alone served as the control. Row one of a 96-well plate was filled with 200 μL of the antibiotic/2-AI solution, and rows 2-12 were filled with 100 μL each of the remaining 4 mL of bacterial subculture containing adjuvant at the desired concentration, except for the control lane which contained only bacterial subculture. Row one was then mixed five times, and 100 μL was transferred to row two, which was then mixed five times before being transferred to row three. This process was repeated until all rows had been mixed, except for row twelve which would have only 2-AI to serve as a control to monitor potential toxicity. The 96-well plate was then covered in Glad Press n'Seal and incubated under stationary conditions at 37° C. for 16 h. MIC values were determined as the lowest concentration at which no bacterial growth was observed, and fold reductions were determined by comparison to antibiotic control lane.

[2] = tested on: A. baumannii isolates (23 strains); experiment: Minimum inhibitory concentration against AB isolates; settings: Acinetobacter baumannii, compound alone
Procedure: Broth microdilution method for MIC determination. Day cultures (6 h) of each bacterial strain in cation adjusted Mueller Hinton II broth (CAMHB, Fisher Scientific U.S.) were subcultured to 5×10^5 CFU/mL in CAMHB. Aliquots (1 mL) were placed in culture tubes and compound was added from 10 mM stock samples in DMSO, such that compound concentration equaled highest concentration tested (200 μM). Samples were then aliquoted (200 μL) into the first wells of a 96-well plate, with all remaining wells being filled with 100 μL of initial bacterial subculture. Row one wells were mixed five times, before 100 μL was transferred to row two. Row two was then mixed five times, and 100 μL was transferred to row three. This process was repeated until the final row had been mixed; this served to serially dilute the compound. Plates were then covered with GLAD Press n'Seal and incubated under stationary conditions at 37° C. for 16 h. MIC values were then recorded as the lowest concentration at which no bacterial growth was observed.

AB5075 [3] = experiment: Broth microdilution MIC of compound alone (standalone toxicity)
Summary of the method: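 A. baumannii 5075 subcultured to 5×10^5 CFU/mL in cation-adjusted Mueller-Hinton broth; compound twofold serially diluted from 200 μM (DMSO stock) and incubated stationary at 37° C for 16 h. MIC taken as lowest concentration with no visible growth; duplicates, repeated at least twice.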

AB5075 [4] = experiment: Broth microdilution clarithromycin (CLR) potentiation and dose-response of adjuvant
Summary of the method: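 A. baumannii AB5075 at 5×10^5 CFU/mL in CAMHB with fixed adjuvant (DMSO ≤0.3%) and two-fold serially diluted clarithromycin or colistin, stationary 16 h at 37° C. MIC = lowest concentration without visible growth; fold reduction versus antibiotic alone. Dose-response used adjuvant at 0–30 μM.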

With `Cl.Nc1nc(-c2ccc(NC(=O)c3ccc(Cl)c(Cl)c3)cc2F)c[nH]1` [Compound 15b, N-(4-(2-amino-1H-imidazol-4-yl)-3-fluorophenyl)-3,4-dichlorobenzamide hydrochloride] the “CLR MIC + adjuvant” value ([1]; A. baumannii strain 3560) was 2 µg/mL, the “CLR MIC + adjuvant” value ([1]; A. baumannii strain 3785) was 4 µg/mL and the “CLR MIC + adjuvant” value ([1]; A. baumannii strain 3806) was 0.5 µg/mL. The “CLR MIC + adjuvant” value ([1]; A. baumannii strain 3927) was 2 µg/mL, the “CLR MIC + adjuvant” value ([1]; A. baumannii strain 4025) was 1 µg/mL and the “CLR MIC + adjuvant” value ([1]; A. baumannii strain 4026) was 4 µg/mL. For the same molecule, the “CLR MIC + adjuvant” value ([1]; A. baumannii strain 4027) was 1 µg/mL, the “CLR MIC + adjuvant” value ([1]; A. baumannii strain 4052) was 1 µg/mL and the “CLR MIC + adjuvant” value ([1]; A. baumannii strain 4269) was 2 µg/mL. For the same molecule, the “CLR MIC + adjuvant” value ([1]; A. baumannii strain 4448) was 2 µg/mL, the “CLR MIC + adjuvant” value ([1]; A. baumannii strain 4456) was 2 µg/mL and the “CLR MIC + adjuvant” value ([1]; A. baumannii strain 4490) was 2 µg/mL. The “CLR MIC + adjuvant” value ([1]; A. baumannii strain 4498) was 2 µg/mL, the “CLR MIC + adjuvant” value ([1]; A. baumannii strain 4795) was 2 µg/mL and the “CLR MIC + adjuvant” value ([1]; A. baumannii strain 4857) was 1 µg/mL. The “CLR MIC + adjuvant” value ([1]; A. baumannii strain 4878) was 2 µg/mL, the “CLR MIC + adjuvant” value ([1]; A. baumannii strain 4957) was 4 µg/mL and the “CLR MIC + adjuvant” value ([1]; A. baumannii strain 4991) was 2 µg/mL. For the same molecule, the “CLR MIC + adjuvant” value ([1]; A. baumannii strain 5001) was 4 µg/mL, the “CLR MIC + adjuvant” value ([1]; A. baumannii strain 5197) was 2 µg/mL and the “CLR MIC + adjuvant” value ([1]; A. baumannii strain 5256) was 1 µg/mL. For the same molecule, the “CLR MIC + adjuvant” value ([1]; A. baumannii strain 5711) was 4 µg/mL, the “CLR MIC + adjuvant” value ([1]; A. baumannii strain 8967) was 1 µg/mL and the MIC ([2]; A. baumannii strain 3560, read-out: Minimum inhibitory concentration of compound) was 50 µM. The MIC ([2]; A. baumannii strain 3785, read-out: Minimum inhibitory concentration of compound) was 200 µM, the MIC ([2]; A. baumannii strain 3806, read-out: Minimum inhibitory concentration of compound) was 200 µM and the MIC ([2]; A. baumannii strain 3927, read-out: Minimum inhibitory concentration of compound) was over 200 µM. It also gave an MIC ([2]; A. baumannii strain 4025, read-out: Minimum inhibitory concentration of compound) of 100 µM, an MIC ([2]; A. baumannii strain 4026, read-out: Minimum inhibitory concentration of compound) of 100 µM and an MIC ([2]; A. baumannii strain 4027, read-out: Minimum inhibitory concentration of compound) of 200 µM. It also gave an MIC ([2]; A. baumannii strain 4052, read-out: Minimum inhibitory concentration of compound) of over 200 µM, an MIC ([2]; A. baumannii strain 4269, read-out: Minimum inhibitory concentration of compound) of over 200 µM and an MIC ([2]; A. baumannii strain 4448, read-out: Minimum inhibitory concentration of compound) of over 200 µM. For the same molecule, the MIC ([2]; A. baumannii strain 4456, read-out: Minimum inhibitory concentration of compound) was 50 µM, the MIC ([2]; A. baumannii strain 4490, read-out: Minimum inhibitory concentration of compound) was over 200 µM and the MIC ([2]; A. baumannii strain 4498, read-out: Minimum inhibitory concentration of compound) was 100 µM. It also gave an MIC ([2]; A. baumannii strain 4795, read-out: Minimum inhibitory concentration of compound) of 100 µM, an MIC ([2]; A. baumannii strain 4857, read-out: Minimum inhibitory concentration of compound) of 50 µM and an MIC ([2]; A. baumannii strain 4878, read-out: Minimum inhibitory concentration of compound) of 200 µM. For the same molecule, the MIC ([2]; A. baumannii strain 4957, read-out: Minimum inhibitory concentration of compound) was over 200 µM, the MIC ([2]; A. baumannii strain 4991, read-out: Minimum inhibitory concentration of compound) was over 200 µM and the MIC ([2]; A. baumannii strain 5001, read-out: Minimum inhibitory concentration of compound) was over 200 µM. It also gave an MIC ([2]; A. baumannii strain 5197, read-out: Minimum inhibitory concentration of compound) of over 200 µM, an MIC ([2]; A. baumannii strain 5256, read-out: Minimum inhibitory concentration of compound) of over 200 µM and an MIC ([2]; A. baumannii strain 5711, read-out: Minimum inhibitory concentration of compound) of over 200 µM. The MIC ([2]; A. baumannii strain 8967, read-out: Minimum inhibitory concentration of compound) was over 200 µM, the MIC ([2]; remaining 20 strains, read-out: MIC values) was at least 100 µM and the MIC ([2]; three of the AB isolates, read-out: MIC values) was 50 µM. The MIC (AB5075 [3]; Acinetobacter baumannii) was over 200 µM, the MIC (AB5075 [3]; hydrochloride) was over 200 µM and the “CLR MIC” value (AB5075 [4]; compound tested at 5 μM) was 8 µg/mL. For the same molecule, the “Fold Reduction of CLR MIC” value (AB5075 [4]; compound tested at 5 μM) was 4 fold, the “CLR MIC” value (AB5075 [4]; compound tested at 7.5 μM) was 1 µg/mL and the “Fold Reduction of CLR MIC” value (AB5075 [4]; compound tested at 7.5 μM) was 32 fold. The “CLR MIC” value (AB5075 [4]; compound tested at 10 μM) was 0.5 µg/mL, the “Fold Reduction of CLR MIC” value (AB5075 [4]; compound tested at 10 μM) was 64 fold and the “CLR MIC” value (AB5075 [4]; compound tested at 20 μM) was 0.5 µg/mL. For the same molecule, the “Fold Reduction of CLR MIC” value (AB5075 [4]; compound tested at 20 μM) was 64 fold, the “CLR MIC” value (AB5075 [4]; compound tested at 30 μM) was 0.5 µg/mL and the “Fold Reduction of CLR MIC” value (AB5075 [4]; compound tested at 30 μM) was 64 fold.

From US12559461B2, “Antibiotic adjuvant compounds” (UNIVERSITY OF NOTRE DAME DU LAC, priority 2020, dated 2026)
